Laboratory results: BigSolDB 2.1

CCn1c2ccccc2c2ccccc21
solubility (mole fraction)
Settings	in ethanol	in isopropanol	in methanol	in n-butanol	in n-pentanol	in n-propanol
279.15 K	0.0069	0.0065	0.0028	0.0135	–	0.0092
283.15 K	0.008	0.0076	0.0033	0.0151	0.016	0.0105
287.15 K	0.0095	0.009	0.004	0.0172	0.0183	0.0124
291.15 K	0.0112	0.0107	0.0047	0.0208	0.021	0.0142
295.15 K	0.013	0.0127	0.0057	0.0234	0.025	0.0169
299.15 K	0.0149	0.0152	0.0068	0.0271	0.0292	0.0202
303.15 K	0.0182	0.0183	0.0082	0.0316	0.035	0.024
307.15 K	0.0228	0.0223	0.0098	0.0379	0.042	0.028
311.15 K	0.0274	0.028	0.012	0.0446	0.05	0.033
315.15 K	0.0355	0.0342	0.0147	0.0522	0.0609	0.0401
319.15 K	0.0433	0.0436	0.0179	0.0621	0.0743	0.048
